Measurements from patent US20040259909A1, “Treatment of fibromyalgia syndrome” (priority 2001, published 2004).
pKi: −log10 of the molar value. Where two headings read alike, the source gives them in different places.

How the values were obtained:
α7 nAChR subtype = target: T1, α7 nAChR subtype (Rattus norvegicus, UniProt Q05941); assay: 125I-α-Bungarotoxin (BTX) binding to rat hippocampal membranes (Test A)
T1 construct: Rat hippocampi were homogenized in 20 volumes of cold homogenisation buffer; from tissue; host or cells: rat hippocampus membranes
Description: Test A—Assay for Affinity at α7 nAChR Subtype
Rat hippocampi were homogenized in 20 volumes of cold homogenisation buffer (HB): (in mM): tris(hydroxymethyl)aminomethane 50; MgCl2 1; NaCl 120; KCl 5: pH 7.4). The homogenate was centrifuged for 5 min at 1000 g, the supernatant was saved and the pellet re-extracted. The pooled supernatants were centrifuged for 20 min at 12000 g, washed, and re-suspended in HB.
(§1) Ki values were estimated using the general Cheng-Prusoff equation (A):
(§2) where a value of n=1 was used whenever nH<1.5 and a value of n−2 was used when nH≧1.5. Samples were assayed in triplicate and were typically ±5%. Ki values were determined using six or more drug concentrations.

5-HT3 = target: T2, 5-HT3 (Rattus norvegicus, UniProt P35563); assay: [3H]zacopride binding to rat small-bowel muscularis membranes (Test B); details: 0.5 nM [3H]zacopride, read-out: Binding Affinity (Ki/nM) 5HT3
T2 construct: using rat small-bowel muscularis membranes suspended in 50 mM Tris; from tissue; host or cells: rat small-bowel muscularis membranes
T2 sequence (P35563 24-483): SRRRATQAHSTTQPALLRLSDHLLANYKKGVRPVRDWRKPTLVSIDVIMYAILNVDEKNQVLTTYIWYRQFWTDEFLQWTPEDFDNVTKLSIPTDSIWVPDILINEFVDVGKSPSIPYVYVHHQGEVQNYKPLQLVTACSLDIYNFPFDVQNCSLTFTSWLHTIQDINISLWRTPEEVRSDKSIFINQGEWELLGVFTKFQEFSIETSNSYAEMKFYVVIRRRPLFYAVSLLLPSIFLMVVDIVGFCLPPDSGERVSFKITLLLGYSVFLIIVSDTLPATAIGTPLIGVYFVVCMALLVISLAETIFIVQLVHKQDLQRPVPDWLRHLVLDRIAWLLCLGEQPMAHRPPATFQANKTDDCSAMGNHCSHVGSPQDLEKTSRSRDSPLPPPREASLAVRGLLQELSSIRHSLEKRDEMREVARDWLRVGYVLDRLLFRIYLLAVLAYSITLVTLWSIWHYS
Description: Test B—Assay for Affinity to the 5-HT3 nAChR Subtype
[^3]zacoipride binding. […] Incubation was continued for one hour.
Binding Data Analysis for Tests A and B
as §1, §2

nAChR α7 = nAChR α7 (Rattus norvegicus, UniProt Q05941); assay: Oocyte functional assay, two-electrode voltage clamp (Test C, FIG. 1); details: in words; currents in oocytes expressing nAChR α7 (FIG. 1)
Description: Xenopus oocytes Xenopus laevis frogs (Xenopus I, Kalamazoo, Mich.) were anesthetized using 0.15% tricaine. Oocytes were removed to OR2 solution: (in mM) 82 NaCl, 2.5 KCl, 5 HEPES, 1.5 NaH2PO4, 1 MgCl2, 0.1 EDTA, pH 7.4. The oocytes were defolliculated by incubation in 25 mL OR2 containing 0.2% collagenase 1A (SIGMA) two times for 60 min on a platform vibrating at 1 Hz and stored in Leibovitz's L-15 medium. Oocytes were injected the following day. Leibovitz's L-15 medium contained 50 μg/mL gentomycin, 10 units/mL penicillin, and 10 μg/mL streptomycin.
Preparation and injection of cRNA Rat nAChR α7 was cloned in-house (Luhowskyj). Non-polyadenylated cRNA was prepared from cDNA using mMessage mMachine SP6 (Ambion) according to the manufacturer's instructions.
Recording The external recording solution consisted of (in mM) 90 NaCl, 1 KCl, 1 MgCl2, 1 BaCl2, 5 HEPES, pH 7.4. […] Oocytes were impaled with two electrodes of 1-2 MΩ tip resistance when filled with 3M KCl. Recordings were begun when membrane potential became stable at potentials negative to −20 mV. Membrane potential was clamped at −80 mV unless otherwise noted. ACh, (−) was purchased from SIGMA.
Calculation of current amplitude and curve fitting Current amplitude was measured from baseline to peak. EC50's, maximal effect, and Hill slopes were estimated by fitting the data to the logistic equation using GraphPad Prism (GraphPad Software, Inc. San Diego, Calif.)
Data are fit by the logistic equation.

[1] = Animal models of memory and cognition; details: in vivo
Description: In a first embodiment of the invention a suitable α7 agonist is spiro[1-azabicyclo[2.2.2]octane-3,5′-oxazolidine-2′-one (Compound 1, Table 1). […] This compound is disclosed in U.S. Pat. No. 5,902,814 the disclosure of which is incorporated herein in its entirety by reference. This compound is active in animal models of memory and cognition.

[2] = complex spatial memory task, animal models; cited from earlier work
[3] = fibromyalgia patients treated with tropisetron; cited from earlier work

nAChR α7, sequence (Q05941 23-502): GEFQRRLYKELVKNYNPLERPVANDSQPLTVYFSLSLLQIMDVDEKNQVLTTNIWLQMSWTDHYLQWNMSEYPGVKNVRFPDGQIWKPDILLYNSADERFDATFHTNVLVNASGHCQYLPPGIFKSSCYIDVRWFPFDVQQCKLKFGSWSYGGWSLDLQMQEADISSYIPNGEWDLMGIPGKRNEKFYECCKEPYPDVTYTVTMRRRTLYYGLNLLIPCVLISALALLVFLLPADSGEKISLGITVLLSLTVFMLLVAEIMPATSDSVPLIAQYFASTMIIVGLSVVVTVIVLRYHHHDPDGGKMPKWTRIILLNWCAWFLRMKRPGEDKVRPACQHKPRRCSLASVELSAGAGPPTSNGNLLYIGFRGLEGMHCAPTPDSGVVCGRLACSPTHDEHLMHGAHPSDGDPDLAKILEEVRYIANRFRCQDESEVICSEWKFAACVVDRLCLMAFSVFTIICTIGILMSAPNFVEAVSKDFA
T1 sequence (Q05941 23-502): as above

Row | SMILES | activity at the α7 receptor (nAChR α7) | antagonism of spatial navigation impairment [2] | other results
1 | O=C(NC1CN2CCC1CC2)c1cc(-c2ccccc2)cs1 (stereo not shown) [Compound 3, N-(1-azabicyclo[2.2.2]oct-3-yl)(4-phenylthiophene-2-carboxamide)] |  |  | pKi (α7 nAChR subtype): 8.80; Ki (5-HT3): 20000 nM
2 | O=C1NC[C@]2(CN3CCC2CC3)O1 [Compound 1, spiro[1-azabicyclo[2.2.2]octane-3,5′-oxazolidine-2′-one] | selective α7 agonist |  | activity in animal models of memory and cognition [1]: active
3 | CN1[C@@H]2CC[C@H]1C[C@@H](OC(=O)c1c[nH]c3ccccc13)C2 [tropisetron] | potent and selective partial agonist | antagonize spatial navigation impairment | reduction in fibromyalgia symptoms [3]: statistically significant reduction in their symptoms
4 | c1cnc2c(c1)C[C@@]1(CN3CCC1CC3)O2 [Compound 2, spiro[1-azabicyclo[2.2.2]octane-3,2′-(3′H)-furo[2,3-b]pyridine]] |  |  | Ki (α7 nAChR subtype; [125I]α-BTX 5 nM, rat hippocampal membranes, read-out: Binding Affinity (Ki/nM) α7): 14 nM
5 | Cc1nccn1CC1CCc2c(c3ccccc3n2C)C1=O (stereo not shown) [ondansetron] | lacked activity | not | 
